Earlier results as cited in patent US20130317107A1, “Platelet-Based Methods to Detect and Monitor Treatment Benefits in Mucosal and Nervous Systems Diseases” (priority 2012, published 2013).

What was measured:
[1] = relative to cysteine
[2] = relative to the stable cysteine disulfide
[3] = tested on: interluekin-1 beta (IL-1β)-induced eotaxin and monocyte chemotactic protein-1 (MCP-1) expression; details: by inhibiting activation of p38 MAP kinase
[4] = tested on: dogs; details: administered intravenously in dogs
[5] = tested on: p38 MAP kinase; details: human bronchial epithelial cells
[6] = tested on: human bronchial epithelial cells
[7] = tested on: collagen-stimulated platelets

Compound | stability compared with cysteine [1] | solubility compared with cystine [2] | IL-1β-induced eotaxin and MCP-1 expression and production [3] | protection against pulmonary oxygen toxicity and ischemic and reperfusion damage [4] | DEP-induced p38 MAP kinase activity [5] | DEP-induced IL-8 and RANTES production [6] | CD40L release [7]
CC(=O)N[C@@H](CS)C(=O)O [N-acetylcysteine] | about 10 times | much more soluble | inhibit | protect | inhibit | inhibited | 
CC(=O)Oc1ccccc1C(=O)O [Aspirin] |  |  |  |  |  |  | only partially inhibit
